Patent publication US5185330A, “Penam derivatives and salts thereof, and antibacterial agent comprising the same” (Toyama Chemical Co., Ltd., priority 1989, dated 1993)
Values after ≈ are worked out from the molar mass of the structure shown. Read-outs that look alike come from different tables or passages of the source.

Tests used:
E. coli TK-3 = test: Antibacterial activity (MIC, agar dilution) against E. coli TK-3*; format: cell-based; details: Escherichia coli
Experimental: (§1) According to Chemotherapy, vol. 29, No. 1, pp. 76-79 (1981), bacterium was cultured in peptone broth manufactured by Eiken Kagaku K.K. at 37° C. for 20 hours to prepare a bacterial solution of 10^8 cells/ml, and one loopful of the bacterial solution was inoculated into Heart Infusion agar medium (manufactured by Eiken Kagaku K.K.) containing a drug, cultured at 37° C. for 20 hours, after which growth of bacterium was observed. The minimum concentration at which the growth of bacterium was prevented was indicated as MIC (μg/ml).
(§2) *means that β-lactamaseproducing bacteria.

S. marcescens W-8 = test: Antibacterial activity (MIC, agar dilution) against S. marcescens W-8*; format: cell-based; details: Serratia marcescens
Experimental: as §1, §2

[1] = W8, S. marcescens W-8* (β-lactamase-producing bacteria), Heart Infusion agar, 37° C., 20 hours, one loopful of 10^8 cells/ml, read-out: MIC
[2] = TK3, E. coli TK-3* (β-lactamase-producing bacteria), Heart Infusion agar, 37° C., 20 hours, one loopful of 10^8 cells/ml, read-out: MIC

Row | Structure (SMILES) | MIC (S. marcescens W-8; [1]) [µg/mL] | MIC (E. coli TK-3; [2]) [µg/mL] | MIC (E. coli TK-3; TK3, 20 h) [µg/mL] | MIC (S. marcescens W-8; W8, 20 h) [µg/mL]
1 | O=C(O)C(C(=O)N[C@@H]1C(=O)N2C[C@@](C(=O)O)(N3CCN(N=C4SCCS4)C3=O)S[C@H]12)c1ccccc1 (stereo partly shown) [compound 1] | 0.1 (≈ 0.181 µM) | – | 0.39 (≈ 0.707 µM) | –
2 | CCN1CCN(C(=O)NN2CCN([C@]3(C(=O)O)CN4C(=O)[C@@H](NC(=O)C(C(=O)O)c5ccccc5)[C@H]4S3)C2=O)C(=O)C1=O (stereo partly shown) [compound 3] | – | – | 0.78 (≈ 1.26 µM) | 0.78 (≈ 1.26 µM)
3 | O=C(NN1CCN([C@]2(C(=O)O)CN3C(=O)[C@@H](NC(=O)C(C(=O)O)c4ccccc4)[C@H]3S2)C1=O)c1cc(=O)c(O)c[nH]1 (stereo partly shown) [compound 5] | – | – | 3.13 (≈ 5.34 µM) | 3.13 (≈ 5.34 µM)
4 | CSC(=NN1CCN([C@]2(C(=O)O)CN3C(=O)[C@@H](NC(=O)C(C(=O)O)c4ccccc4)[C@H]3S2)C1=O)SC (stereo partly shown) [compound 6] | 1.56 (≈ 2.82 µM) | – | 3.13 (≈ 5.65 µM) | –
5 | NC(=O)C(=O)NN1CCN([C@]2(C(=O)O)CN3C(=O)[C@@H](NC(=O)C(C(=O)O)c4ccccc4)[C@H]3S2)C1=O (stereo partly shown) [compound 8] | 1.56 (≈ 3 µM) | – | 3.13 (≈ 6.01 µM) | –
6 | C=CC=NN1CCN([C@]2(C(=O)O)CN3C(=O)[C@@H](NC(=O)C(C(=O)O)c4ccccc4)[C@H]3S2)C1=O (stereo partly shown) [compound 10] | – | 0.1 (≈ 0.205 µM) | – | 0.05 (≈ 0.103 µM)
7 | O=C(O)C(C(=O)N[C@@H]1C(=O)N2C[C@@](C(=O)O)(N3CCN(NC(=O)C(F)(F)F)C3=O)S[C@H]12)c1ccc(O)cc1 (stereo partly shown) [compound 13] | 3.13 (≈ 5.57 µM) | 12.5 (≈ 22.3 µM) | – | –
8 | C=CC=NN1CCN([C@]2(C(=O)O)CN3C(=O)[C@@H](NC(=O)C(C(=O)O)c4ccc(O)cc4)[C@H]3S2)C1=O (stereo partly shown) [compound 18] | 0.1 (≈ 0.199 µM) | – | ≤ 0.05 | –
9 | C#CC=NN1CCN([C@]2(C(=O)O)CN3C(=O)[C@@H](NC(=O)C(C(=O)O)c4ccc(O)cc4)[C@H]3S2)C1=O (stereo partly shown) [compound 19] | – | – | ≤ 0.05 | ≤ 0.05
10 | CC(=O)Oc1cc(Cl)c(C(C(=O)N[C@@H]2C(=O)N3C[C@@](C(=O)O)(N4CCN(NC(N)=O)C4=O)S[C@H]23)S(=O)(=O)O)cc1OC(C)=O (stereo partly shown) [compound 20] | 0.78 (≈ 1.15 µM) | 0.78 (≈ 1.15 µM) | – | –
11 | NC(=O)NN1CCN([C@]2(C(=O)O)CN3C(=O)[C@@H](NC(=O)C(c4cc(O)c(O)cc4Cl)S(=O)(=O)O)[C@H]3S2)C1=O (stereo partly shown) [compound 21] | 0.39 (≈ 0.655 µM) | 0.39 (≈ 0.655 µM) | – | –

Further lines, with some results ahead:

Row | MIC (S. marcescens W-8; [1]) [µg/mL] | MIC (E. coli TK-3; [2]) [µg/mL] | Structure (SMILES) | MIC (E. coli TK-3; TK3, 20 h) [µg/mL] | MIC (S. marcescens W-8; W8, 20 h) [µg/mL]
12 | 0.39 (≈ 0.739 µM) | 0.39 (≈ 0.739 µM) | O=C(O)C(C(=O)N[C@@H]1C(=O)N2C[C@@](C(=O)O)(N3CCN(N=Cc4ccco4)C3=O)S[C@H]12)c1ccccc1 (stereo partly shown) [compound 2] | – | –
13 | 6.25 (≈ 11 µM) | 6.25 (≈ 11 µM) | O=C(O)C(C(=O)N[C@@H]1C(=O)N2C[C@@](C(=O)O)(N3CCN(N=Cc4ccc(O)c(O)c4)C3=O)S[C@H]12)c1ccccc1 (stereo partly shown) [compound 4] | – | –
14 | 6.25 (≈ 13.1 µM) | 12.5 (≈ 26.2 µM) | O=CNN1CCN([C@]2(C(=O)O)CN3C(=O)[C@@H](NC(=O)C(C(=O)O)c4ccccc4)[C@H]3S2)C1=O (stereo partly shown) [compound 7] | – | –
15 | 12.5 (≈ 24.7 µM) | 25 (≈ 49.5 µM) | O=C(O)C=NN1CCN([C@]2(C(=O)O)CN3C(=O)[C@@H](NC(=O)C(C(=O)O)c4ccccc4)[C@H]3S2)C1=O (stereo partly shown) [compound 9] | – | –
16 | 0.1 (≈ 0.188 µM) | 0.2 (≈ 0.376 µM) | O=C(O)C=CC=NN1CCN([C@]2(C(=O)O)CN3C(=O)[C@@H](NC(=O)C(C(=O)O)c4ccccc4)[C@H]3S2)C1=O (stereo partly shown) [compound 11] | – | –
17 | 0.1 (≈ 0.172 µM) | 0.78 (≈ 1.34 µM) | O=C(O)C(C(=O)N[C@@H]1C(=O)N2C[C@@](C(=O)O)(N3CCN(N=CC=CCS(=O)(=O)O)C3=O)S[C@H]12)c1ccccc1 (stereo partly shown) [compound 12] | – | –
18 | 3.13 (≈ 4.94 µM) | 3.13 (≈ 4.94 µM) | CCN1CCN(C(=O)NN2CCN([C@]3(C(=O)O)CN4C(=O)[C@@H](NC(=O)C(C(=O)O)c5ccc(O)cc5)[C@H]4S3)C2=O)C(=O)C1=O (stereo partly shown) [compound 14] | – | –
19 | 12.5 (≈ 22.7 µM) | 12.5 (≈ 22.7 µM) | O=C(O)CC(=O)NN1CCN([C@]2(C(=O)O)CN3C(=O)[C@@H](NC(=O)C(C(=O)O)c4ccc(O)cc4)[C@H]3S2)C1=O (stereo partly shown) [compound 15] | – | –
20 | 12.5 (≈ 22.9 µM) | 12.5 (≈ 22.9 µM) | O=C(O)C(C(=O)N[C@@H]1C(=O)N2C[C@@](C(=O)O)(N3CCN(NS(=O)(=O)O)C3=O)S[C@H]12)c1ccc(O)cc1 (stereo partly shown) [compound 16] | – | –
21 | 1.56 (≈ 2.99 µM) | 1.56 (≈ 2.99 µM) | CNC(=O)NN1CCN([C@]2(C(=O)O)CN3C(=O)[C@@H](NC(=O)C(C(=O)O)c4ccc(O)cc4)[C@H]3S2)C1=O (stereo partly shown) [compound 17] | – | –
22 | 12.5 (≈ 18.4 µM) | 6.25 (≈ 9.2 µM) | CC(=O)Oc1cc(C(C(=O)N[C@@H]2C(=O)N3C[C@@](C(=O)O)(N4CCN(NC(N)=O)C4=O)S[C@H]23)S(=O)(=O)O)cc(Cl)c1OC(C)=O (stereo partly shown) [compound 22] | – | –
23 | 3.13 (≈ 5.36 µM) | 3.13 (≈ 5.36 µM) | O=C(O)C(C(=O)N[C@@H]1C(=O)N2C[C@@](C(=O)O)(N3CCN(N=C4SCCS4)C3=O)S[C@H]12)c1ccc(O)c(O)c1 (stereo partly shown) [compound 23] | – | –
